How the values were obtained:
Assay in all cases: Test E pre-/postemergence plant response
Format in all cases: in vivo
Conditions in all cases: scale 0 to 100
[1] = system: Italian ryegrass (Lolium multiflorum)
In short: (§1)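 Formulated in a non-phytotoxic solvent mixture containing surfactant, compound was applied to soil at planting or sprayed on emerged plants at the 1- to 4-leaf stage. Visual comparison with controls followed 14 to 21 days in the greenhouse; 0 = no effect, 100 = complete control.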

[2] = system: barnyardgrass (Echinochloa crus-galli)
In short: as §1

[3] = system: black mustard (Brassica nigra)
In short: as §1

[4] = system: broadleaf signalgrass (Brachiaria platyphylla)
In short: as §1

[5] = system: common mallow (Malva sylvestris)
In short: as §1

[6] = system: common purslane (Portulaca oleracea)
In short: as §1

[7] = system: green foxtail (Setaria viridis)
In short: as §1

[8] = system: guineagrass (Panicum maximum)
In short: as §1

[9] = system: large crabgrass (Digitaria sanguinalis)
In short: as §1

[10] = system: naked crabgrass (Digitaria nuda)
In short: as §1

[11] = system: pitted morningglory (Ipomoea lacunosa)
In short: as §1

[12] = system: purple nutsedge (Cyperus rotundus)
In short: as §1

[13] = system: quackgrass (Elytrigia repens)
In short: as §1

[14] = system: southern (S.) sandbur (Cenchrus echinatus)
In short: as §1

[15] = system: surinam grass (Brachiaria decumbens)
In short: as §1

Cc1cc(-c2ccc(Cl)cc2)nn1-c1c(OS(=O)(=O)c2ccccc2)cnn(C)c1=O [Compound 35]
Plant response rating, Ryegrass, Italian ([1]; 16 g ai/ha, Preemergence): 98 | Plant response rating, Ryegrass, Italian ([1]; 31 g ai/ha, Preemergence): 100 | Plant response rating, Ryegrass, Italian ([1]; 62 g ai/ha, Preemergence): 100 | Plant response rating, Ryegrass, Italian ([1]; Postemergence, 8 g ai/ha): 20 | Plant response rating, Ryegrass, Italian ([1]; Postemergence, 16 g ai/ha): 20 | Plant response rating, Ryegrass, Italian ([1]; Postemergence, 31 g ai/ha): 60 | Plant response rating, Ryegrass, Italian ([1]; Postemergence, 62 g ai/ha): 95 | Plant response rating, Barnyardgrass ([2]; 8 g ai/ha, Preemergence): 40 | Plant response rating, Barnyardgrass ([2]; 16 g ai/ha, Preemergence): 80 | Plant response rating, Barnyardgrass ([2]; 31 g ai/ha, Preemergence): 95 | Plant response rating, Barnyardgrass ([2]; 62 g ai/ha, Preemergence): 100 | Plant response rating, Barnyardgrass ([2]; Postemergence, 8 g ai/ha): 60 | Plant response rating, Barnyardgrass ([2]; Postemergence, 16 g ai/ha): 75 | Plant response rating, Barnyardgrass ([2]; Postemergence, 31 g ai/ha): 100 | Plant response rating, Barnyardgrass ([2]; Postemergence, 62 g ai/ha): 100 | Plant response rating, Mustard, Black ([3]; 8 g ai/ha, Preemergence): 0 | Plant response rating, Mustard, Black ([3]; 16 g ai/ha, Preemergence): 0 | Plant response rating, Mustard, Black ([3]; 31 g ai/ha, Preemergence): 0 | Plant response rating, Mustard, Black ([3]; 62 g ai/ha, Preemergence): 0 | Plant response rating, Mustard, Black ([3]; Postemergence, 8 g ai/ha): 0 | Plant response rating, Mustard, Black ([3]; Postemergence, 16 g ai/ha): 0 | Plant response rating, Mustard, Black ([3]; Postemergence, 31 g ai/ha): 0 | Plant response rating, Mustard, Black ([3]; Postemergence, 62 g ai/ha): 0 | Plant response rating, Signalgrass ([4]; 16 g ai/ha, Preemergence): 80 | Plant response rating, Signalgrass ([4]; 31 g ai/ha, Preemergence): 100 | Plant response rating, Signalgrass ([4]; 62 g ai/ha, Preemergence): 100 | Plant response rating, Signalgrass ([4]; Postemergence, 8 g ai/ha): 60 | Plant response rating, Signalgrass ([4]; Postemergence, 16 g ai/ha): 70 | Plant response rating, Signalgrass ([4]; Postemergence, 31 g ai/ha): 75 | Plant response rating, Signalgrass ([4]; Postemergence, 62 g ai/ha): 100 | Plant response rating, Mallow ([5]; 62 g ai/ha, Preemergence): 0 | Plant response rating, Mallow ([5]; Postemergence, 8 g ai/ha): 0 | Plant response rating, Mallow ([5]; Postemergence, 16 g ai/ha): 0 | Plant response rating, Mallow ([5]; Postemergence, 31 g ai/ha): 0 | Plant response rating, Mallow ([5]; Postemergence, 62 g ai/ha): 0 | Plant response rating, Purslane ([6]; 16 g ai/ha, Preemergence): 0 | Plant response rating, Purslane ([6]; 31 g ai/ha, Preemergence): 0 | Plant response rating, Purslane ([6]; 62 g ai/ha, Preemergence): 0 | Plant response rating, Purslane ([6]; Postemergence, 8 g ai/ha): 0 | Plant response rating, Purslane ([6]; Postemergence, 16 g ai/ha): 0 | Plant response rating, Purslane ([6]; Postemergence, 31 g ai/ha): 0 | Plant response rating, Purslane ([6]; Postemergence, 62 g ai/ha): 0 | Plant response rating, Foxtail, Green ([7]; 8 g ai/ha, Preemergence): 15 | Plant response rating, Foxtail, Green ([7]; 16 g ai/ha, Preemergence): 35 | Plant response rating, Foxtail, Green ([7]; 31 g ai/ha, Preemergence): 90 | Plant response rating, Foxtail, Green ([7]; 62 g ai/ha, Preemergence): 98 | Plant response rating, Foxtail, Green ([7]; Postemergence, 8 g ai/ha): 40 | Plant response rating, Foxtail, Green ([7]; Postemergence, 16 g ai/ha): 60 | Plant response rating, Foxtail, Green ([7]; Postemergence, 31 g ai/ha): 65 | Plant response rating, Foxtail, Green ([7]; Postemergence, 62 g ai/ha): 75 | Plant response rating, Guineagrass ([8]; 16 g ai/ha, Preemergence): 100 | Plant response rating, Guineagrass ([8]; 31 g ai/ha, Preemergence): 100 | Plant response rating, Guineagrass ([8]; 62 g ai/ha, Preemergence): 100 | Plant response rating, Guineagrass ([8]; Postemergence, 8 g ai/ha): 75 | Plant response rating, Guineagrass ([8]; Postemergence, 16 g ai/ha): 75 | Plant response rating, Guineagrass ([8]; Postemergence, 31 g ai/ha): 80 | Plant response rating, Guineagrass ([8]; Postemergence, 62 g ai/ha): 95 | Plant response rating, Crabgrass, Large ([9]; 8 g ai/ha, Preemergence): 20 | Plant response rating, Crabgrass, Large ([9]; 16 g ai/ha, Preemergence): 20 | Plant response rating, Crabgrass, Large ([9]; 31 g ai/ha, Preemergence): 95 | Plant response rating, Crabgrass, Large ([9]; 62 g ai/ha, Preemergence): 100 | Plant response rating, Crabgrass, Large ([9]; Postemergence, 8 g ai/ha): 50 | Plant response rating, Crabgrass, Large ([9]; Postemergence, 16 g ai/ha): 60 | Plant response rating, Crabgrass, Large ([9]; Postemergence, 31 g ai/ha): 75 | Plant response rating, Crabgrass, Large ([9]; Postemergence, 62 g ai/ha): 80 | Plant response rating, Crabgrass, Naked ([10]; 8 g ai/ha, Preemergence): 75 | Plant response rating, Crabgrass, Naked ([10]; 16 g ai/ha, Preemergence): 98 | Plant response rating, Crabgrass, Naked ([10]; 31 g ai/ha, Preemergence): 100 | Plant response rating, Crabgrass, Naked ([10]; 62 g ai/ha, Preemergence): 100 | Plant response rating, Crabgrass, Naked ([10]; Postemergence, 8 g ai/ha): 50 | Plant response rating, Crabgrass, Naked ([10]; Postemergence, 16 g ai/ha): 50 | Plant response rating, Crabgrass, Naked ([10]; Postemergence, 31 g ai/ha): 95 | Plant response rating, Crabgrass, Naked ([10]; Postemergence, 62 g ai/ha): 95 | Plant response rating, Morningglory ([11]; 16 g ai/ha, Preemergence): 0 | Plant response rating, Morningglory ([11]; 31 g ai/ha, Preemergence): 0 | Plant response rating, Morningglory ([11]; 62 g ai/ha, Preemergence): 0 | Plant response rating, Morningglory ([11]; Postemergence, 8 g ai/ha): 0 | Plant response rating, Morningglory ([11]; Postemergence, 16 g ai/ha): 0 | Plant response rating, Morningglory ([11]; Postemergence, 31 g ai/ha): 0 | Plant response rating, Morningglory ([11]; Postemergence, 62 g ai/ha): 0 | Plant response rating, Nutsedge, Purple ([12]; 16 g ai/ha, Preemergence): 0 | Plant response rating, Nutsedge, Purple ([12]; 62 g ai/ha, Preemergence): 0 | Plant response rating, Nutsedge, Purple ([12]; Postemergence, 8 g ai/ha): 0 | Plant response rating, Nutsedge, Purple ([12]; Postemergence, 16 g ai/ha): 0 | Plant response rating, Nutsedge, Purple ([12]; Postemergence, 31 g ai/ha): 0 | Plant response rating, Nutsedge, Purple ([12]; Postemergence, 62 g ai/ha): 0 | Plant response rating, Quackgrass ([13]; 16 g ai/ha, Preemergence): 20 | Plant response rating, Quackgrass ([13]; 31 g ai/ha, Preemergence): 40 | Plant response rating, Quackgrass ([13]; 62 g ai/ha, Preemergence): 50 | Plant response rating, Quackgrass ([13]; Postemergence, 8 g ai/ha): 0 | Plant response rating, Quackgrass ([13]; Postemergence, 16 g ai/ha): 10 | Plant response rating, Quackgrass ([13]; Postemergence, 31 g ai/ha): 30 | Plant response rating, Quackgrass ([13]; Postemergence, 62 g ai/ha): 40 | Plant response rating, Sandbur, S. ([14]; 16 g ai/ha, Preemergence): 75 | Plant response rating, Sandbur, S. ([14]; 31 g ai/ha, Preemergence): 90 | Plant response rating, Sandbur, S. ([14]; 62 g ai/ha, Preemergence): 100 | Plant response rating, Sandbur, S. ([14]; Postemergence, 8 g ai/ha): 40 | Plant response rating, Sandbur, S. ([14]; Postemergence, 16 g ai/ha): 75 | Plant response rating, Sandbur, S. ([14]; Postemergence, 31 g ai/ha): 75 | Plant response rating, Sandbur, S. ([14]; Postemergence, 62 g ai/ha): 75 | Plant response rating, Surinam Grass ([15]; 16 g ai/ha, Preemergence): 95 | Plant response rating, Surinam Grass ([15]; 31 g ai/ha, Preemergence): 100 | Plant response rating, Surinam Grass ([15]; 62 g ai/ha, Preemergence): 100 | Plant response rating, Surinam Grass ([15]; Postemergence, 8 g ai/ha): 70 | Plant response rating, Surinam Grass ([15]; Postemergence, 16 g ai/ha): 75 | Plant response rating, Surinam Grass ([15]; Postemergence, 31 g ai/ha): 80 | Plant response rating, Surinam Grass ([15]; Postemergence, 62 g ai/ha): 90

— patent publication US20100267561A1, “HERBICIDAL PYRIDAZINONE DERIVATIVES” (priority 2007, published 2010)
